Assay: solvent given as SMILES

Compound: O=C1CCCC2=C1CC1=C(CCCC1=O)N2NC(=O)c1ccc(O)cc1
- emission maximum (in CC#N): 434 nm
- emission maximum (in CC(C)=O): 432 nm
- emission maximum (in CCCCCO): 447 nm
- emission maximum (in CO): 449 nm
- emission maximum (in ClC(Cl)Cl): 444 nm
- emission maximum (in ClCCl): 436 nm

Compound: COc1cc2c(cc1F)c(=O)c1cc(F)c(OC)cc1n2Cc1ccccc1
- emission maximum (in CCO): 416 nm

Compound: CC1=C(c2cccs2)C(C)=[N+]2C1=C(c1ccccc1)c1c(C)c(-c3cccs3)c(C)n1[B-]2(F)F
- emission maximum (in CO): 610 nm
- emission maximum (in Cc1ccccc1): 609 nm
- emission maximum (in ClCCl): 609 nm

Compound: COc1ccc(OC)cc1
- emission maximum (in C1CCCCC1): 323.21 nm

Compound: Cc1cc2c(o1)=CC1=Cc3cc4oc(C)cc4n3[B-](F)(F)[N+]=21
- emission maximum (in ClC(Cl)Cl): 583 nm

Compound: CCOC(=O)/C(C#N)=C\c1ccc2c(c1)c1ccccc1n2-c1ccc(C)cc1
- emission maximum (in C1CCOC1): 461 nm
- emission maximum (in CC#N): 508 nm
- emission maximum (in CC(C)=O): 503 nm
- emission maximum (in CCOC(C)=O): 460 nm
- emission maximum (in CO): 495 nm
- emission maximum (in CS(C)=O): 503 nm
- emission maximum (in Cc1ccccc1): 444 nm
- emission maximum (in ClC(Cl)Cl): 482 nm

Compound: CN(C)c1ccc(/C=C2\OC(=O)c3cc(N)ccc32)cc1
- emission maximum (in CC#N): 561.8 nm
- emission maximum (in CC(C)=O): 537.06 nm
- emission maximum (in CC(C)CO): 542.89 nm
- emission maximum (in CC(C)O): 550.06 nm
- emission maximum (in CCCO): 559.91 nm
- emission maximum (in CCO): 568.18 nm
- emission maximum (in CCOC(C)=O): 520.83 nm
- emission maximum (in CCOCC): 444.84 nm
- emission maximum (in CO): 568.18 nm

Compound: COc1ccc(/C=C/C2=C3CCc4ccccc4C3=[O+][B-](F)(F)O2)cc1
- emission maximum (in ClCCl): 515 nm

Compound: Cc1cc(C)c(C2=C3C=CC=[N+]3[B-]3(c4cccc5ccccc45)Oc4cc(O)cc5c6ccc(C)cc6c6cc2n3c6c45)c(C)c1 (centres undefined)
- emission maximum (in ClC(Cl)Cl): 669 nm

Compound: CCOC(=O)c1ccc(C2=Cc3cc4ccccc4cc3P2(=O)c2ccccc2)cc1 (centres undefined)
- emission maximum (in ClCCl): 432 nm

Compound: CC/[NH+]=c1\cc2oc3cc(NCCC(=O)NC(C)C(=O)OC)c4ccccc4c3nc-2cc1C (centres undefined)
- emission maximum (in CCO): 644 nm

Compound: Cc1cc(C)c(C2=C3C=C(c4ccc(C(C)(C)C)cc4)C(c4ccc(C(C)(C)C)cc4)=[N+]3[B-](F)(F)n3c2cc(-c2ccc(C(C)(C)C)cc2)c3-c2ccc(C(C)(C)C)cc2)c(C)c1
- emission maximum (in C1CCCCC1): 639 nm
- emission maximum (in C1CCOC1): 628 nm
- emission maximum (in CC#N): 643 nm
- emission maximum (in Cc1ccccc1): 645 nm
- emission maximum (in ClCCl): 644 nm

Compound: CN(C)c1[se]c(-c2ccc(Cl)cc2)nc1-c1ccccc1
- emission maximum (in ClC(Cl)Cl): 455 nm

Compound: CCCCCCOc1ccc(N(c2ccc(OCCCCCC)cc2)c2ccc(-c3sc(-c4ccc(N(c5ccc(OCCCCCC)cc5)c5ccc(OCCCCCC)cc5)cc4)c4nc(-c5ccc(OC)cc5)c(-c5ccc(OC)cc5)nc34)cc2)cc1
- emission maximum (in ClCCl): 752 nm

Compound: CCCCCCCCn1c2ccc(/C=C/c3ccc(N(c4ccccc4)c4ccccc4)cc3)cc2c2cc3c(cc21)c1cc(/C=C/c2ccc(N(c4ccccc4)c4ccccc4)cc2)ccc1n3CCCCCCCC
- emission maximum (in Cc1ccccc1): 453 nm

Compound: CC(C)(C)c1cc(-n2c(-c3ccc(C(=C(c4ccccc4)c4ccccc4)c4ccccc4)cc3)cc3c2cc(-c2ccc(C(=C(c4ccccc4)c4ccccc4)c4ccccc4)cc2)n3-c2cc(C(C)(C)C)cc(C(C)(C)C)c2)cc(C(C)(C)C)c1
- emission maximum (in ClCCl): 586 nm

Compound: Cc1cc2nc3cc(C)c(N)cc3[n+](-c3ccccc3)c2cc1N
- emission maximum (in CC(C)O): 562 nm
- emission maximum (in CCO): 564 nm
- emission maximum (in CO): 563.8 nm
- emission maximum (in O): 588.3 nm

Compound: COc1cccc(OC)c1C1=C2C(C)=CC(C)=[N+]2[B-](F)(F)n2c(C)cc(C)c21
- emission maximum (in C1CCOC1): 520 nm
- emission maximum (in CC#N): 513 nm
- emission maximum (in CC(=O)C(C)(C)C): 520 nm
- emission maximum (in CC(C)=O): 516 nm
- emission maximum (in CCCCCC): 519 nm
- emission maximum (in CCOC(C)=O): 520 nm
- emission maximum (in CO): 518 nm

Compound: COc1ccc(/C=C/c2nc(/C=C/c3ccc(N(C)C)cc3)cc(/C=C/c3ccc(N(C)C)cc3)n2)cc1
- emission maximum (in C1CCOC1): 522 nm
- emission maximum (in CC#N): 581 nm
- emission maximum (in CC(C)=O): 559 nm
- emission maximum (in CCCCCCC): 450 nm
- emission maximum (in CS(C)=O): 598 nm
- emission maximum (in Cc1ccccc1): 480 nm
- emission maximum (in ClCCl): 533 nm

Compound: CCOC(=O)/C(C)=C/C1=C(c2ccc(C)cc2)C2=Nc3c(-c4ccc(C)cc4)c(Br)c(-c4ccc(C)cc4)n3[B-](F)(F)[N+]2=C1c1ccc(C)cc1
- emission maximum (in ClC(Cl)Cl): 702 nm

Compound: COc1ccc2c(c1)c1cc(OC)ccc1n2-c1ccc(S(=O)(=O)c2ccc(-n3c4ccc(OC)cc4c4cc(OC)ccc43)cc2)cc1
- emission maximum (in Cc1ccccc1): 445 nm

Compound: COc1ccc(-c2cc(-c3ccc(C)cc3)nc3c(C#N)c(N4CCCC4)nc(N)c23)cc1
- emission maximum (in CC#N): 521 nm
- emission maximum (in CC(C)=O): 517 nm
- emission maximum (in CC(C)O): 511 nm
- emission maximum (in CO): 519 nm
- emission maximum (in ClC(Cl)Cl): 504 nm
- emission maximum (in ClCCl): 509 nm
- emission maximum (in c1ccccc1): 513 nm

Compound: F[B-]1(F)n2c(cc(Br)c2Br)C(c2ccccc2)=C2C=C(Br)C(c3ccc[nH]3)=[N+]21
- emission maximum (in ClC(Cl)Cl): 642 nm

Compound: CN(C)c1ccc(C2=C3C=C(c4ccc(C=C(C#N)C#N)cc4)S[C@]34c3ccccc3[C@H]2c2ccccc24)cc1
- emission maximum (in ClCCl): 748 nm

Compound: Cc1ccc(C#Cc2ccc3ccc4cccc5ccc2c3c45)cc1
- emission maximum (in CCCCCC): 387 nm
- emission maximum (in CCO): 391 nm
- emission maximum (in CCOC(C)=O): 391 nm
- emission maximum (in ClCCl): 395 nm

Compound: c1ccc(-c2ccc(-c3ccc4c(c3)CCO4)cc2)cc1
- emission maximum (in C1CCCCC1): 377 nm

Compound: Cc1ccc(N(c2ccc(C)cc2)c2ccc(-c3ccc(C=C(C#N)C#N)s3)cc2)cc1
- emission maximum (in ClC(Cl)Cl): 670 nm

Compound: Cc1ccc(-c2ccccc2)cc1
- emission maximum (in C1CCCCC1): 333.89 nm

Compound: COc1ccc(-c2nc(-c3ccc(C#N)cc3)[nH]c2-c2ccc(OC)cc2)cc1
- emission maximum (in CO): 473 nm

Compound: CCN1/C(=C\c2c(-c3ccc(N(C)C)cc3)c(=O)c2=O)C=Cc2ccccc21
- emission maximum (in C1CCCCC1): 427 nm
- emission maximum (in Cc1ccccc1): 434 nm
- emission maximum (in ClCCl): 588 nm

Compound: CCCCOC(=O)c1cc(Oc2ccc(OC)cc2)c2c3c(Cl)cc4c5c(cc(Cl)c(c6c(Oc7ccc(OC)cc7)cc(C(=O)OCCCC)c1c26)c53)C(=O)N(c1c(C(C)C)cccc1C(C)C)C4=O
- emission maximum (in Cc1ccccc1): 599 nm

Compound: O=C(O)C1=C/C(=C/C=[N+]2/c3cc(O)c(C[C@@H]4O[C@H](CO)[C@@H](O)C(O)[C@H]4O)cc3C[C@H]2C(=O)O)C[C@H](C(=O)O)N1 (some centres undefined)
- emission maximum (in CO): 611 nm
- emission maximum (in O): 641 nm
- emission maximum (in OCCO): 608 nm
- emission maximum (in [2H]O[2H]): 641 nm

Compound: CN(C)c1ccc(-n2c(-c3ccncc3)nc3ccccc32)cc1
- emission maximum (in CC#N): 556 nm

Compound: c1ccc(-c2cc(-c3ccccc3)cc(-c3ccc4c(c3)C3(c5ccccc5-4)c4ccccc4-c4c3c3c5ccccc5c(-c5cc(-c6ccccc6)cc(-c6ccccc6)c5)cc3c3ccccc43)c2)cc1 (centres undefined)
- emission maximum (in C1CCOC1): 440 nm

Compound: COc1cc2c(cc1OC)C1=C[C@H](c3ccc(Cl)cc3)C3(C(C#N)=C(C#N)N1CC2)c1cc(Cl)ccc1-c1ccc(Cl)cc13
- emission maximum (in ClCCl): 406 nm

Compound: COc1cccc(-c2nc3sc4ccccc4c3s2)c1
- emission maximum (in CS(C)=O): 412 nm

Compound: N#Cc1c(-n2c3ccc(Br)cc3c3cc(Br)ccc32)c(C#N)c(-n2c3ccc(Br)cc3c3cc(Br)ccc32)c(-n2c3ccc(Br)cc3c3cc(Br)ccc32)c1-n1c2ccc(Br)cc2c2cc(Br)ccc21
- emission maximum (in Cc1ccccc1): 521 nm

Compound: CC(C)(C)c1cc(C(C)(C)C)c(-c2nnc(-c3ccc(-n4c5ccccc5c5ccccc54)cc3)o2)c(C(C)(C)C)c1
- emission maximum (in CCO): 432 nm
- emission maximum (in Cc1ccccc1): 376 nm

Source: the Deep4Chem optical property database
